Test results as given in US20240025919A1, “AZA-TETRACYCLIC OXAZEPINE COMPOUNDS AND USES THEREOF” (Genentech, Inc., priority 2022, published 2024).

How the values were obtained:
[1] = molecular target: KRAS G12D (Homo sapiens (Human), UniProt P01116, G12D); assay: KRAS G12D LoEnz Biochemical Assay, BODIPY-GDP Exchange TR-FRET (SOS1-mediated nucleotide exchange); conditions: read-out: KRas (G12D) GDP HTRF IC50
[2] = molecular target: KRAS WT (Homo sapiens (Human), UniProt P01116); assay: KRAS WT Biochemical Assay, BODIPY-GDP Exchange TR-FRET (Example 502; 0.06 nM KRAS WT, 15 nM GDP, 300 nM SOS1, 120-minute incubation); conditions: read-out: KRas HTRF IC50
Sequence of KRAS WT (P01116-2 other isoform, or with tags, fused parts or gaps): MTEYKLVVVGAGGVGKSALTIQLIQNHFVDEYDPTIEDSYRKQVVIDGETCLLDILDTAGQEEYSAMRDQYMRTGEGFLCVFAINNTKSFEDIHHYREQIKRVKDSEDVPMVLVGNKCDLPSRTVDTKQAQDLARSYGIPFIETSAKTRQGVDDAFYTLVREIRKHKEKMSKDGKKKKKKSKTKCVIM
Description: Example 502: KRAS WT Biochemical Assay, BODIPY-GDP Exchange TR-FRET. Biochemical compound potencies are assessed by evaluating inhibition of SOS1-mediated nucleotide exchange in KRAS WT. In this assay, the SOS1-promoted exchange of fluorescently-labeled GDP (BOPIDY-GDP) is monitored by time-resolved fluorescence resonance energy transfer (TR-FRET). Compounds solubilized in DMSO are dispensed as concentration series into 384-well white assay plates. A preformed complex of 0.06 nM biotin-tagged recombinant human KRAS WT, 15 nM GDP and 0.06 nM terbium-labeled streptavidin (CisBIO) prepared in 10 uL/well assay buffer (20 mM HEPES, pH 7.5, 50 mM NaCl, 10 mM MgCl2, 0.01% Tween-20 and 1 mM dithiothreitol) is added and allowed to incubate for 10-minutes at room temperature. The reaction is initiated with the addition of 5 uL 300 nM recombinant human SOS1 and 300 nM BODIPY-GDP in assay buffer. After a 120-minute incubation, the fluorescence is measured with excitation at 337 nm and emission at 490 and 520 nm. The TR-FRET ratio is determined as the fluorescence at 520 nm divided by the fluorescence at 490 nm multiplied by 10,000. The results are normalized to percent inhibition based on control samples: DMSO (0% inhibition) and control compound at a concentration that inhibits completely (100% inhibition). The normalized TR-FRET results are plotted against compound concentration, and the data are fit to a 4-parameter Hill equation to determine the IC50 values.

Sequence of KRAS G12D (P01116-2 other isoform, or with tags, fused parts or gaps G12D): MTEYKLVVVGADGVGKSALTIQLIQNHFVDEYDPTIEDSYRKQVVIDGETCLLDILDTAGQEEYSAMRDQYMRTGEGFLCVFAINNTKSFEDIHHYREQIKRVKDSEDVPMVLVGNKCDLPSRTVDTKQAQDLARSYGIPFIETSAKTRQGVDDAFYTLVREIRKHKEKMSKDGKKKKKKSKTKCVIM

SMILES | IC50 [1] [nM] | IC50 [2] [nM]
C=C1CN2CCC[C@@]2(COc2nc3c4c(nc(-c5cc(N)c(F)c(C)c5C(F)(F)F)c(F)c4n2)O[C@@H](C)[C@@H]2[C@@H]4CC[C@H](CN32)N4)C1 [Compound 57, 2-Fluoro-5-((5S,5aS,6S,9R)-1-fluoro-5-methyl-12-(((S)-2-methylenetetrahydro-1H-pyrrolizin-7a(5H)-yl)methoxy)-5a,6,7,8,9,10-hexahydro-5H-4-oxa-3,10a,11,13,14-pentaaza-6,9-methanonaphtho[1,8-ab]heptalen-2-yl)-3-methyl-4-(trifluoromethyl) aniline] | 0.16 | 0.633
Cc1c(F)c(N)cc(-c2nc3c4c(nc(OC[C@@]56CCCN5C[C@H](F)C6)nc4c2F)N2C[C@H]4CC[C@H](N4)[C@H]2[C@H](C)O3)c1C=O [Compound 59, 4-Amino-3-fluoro-6-((5S,5aS,6S,9R)-1-fluoro-12-(((2R,7aS)-2-fluorotetrahydro-1H-pyrrolizin-7a(5H)-yl)methoxy)-5-methyl-5a,6,7,8,9,10-hexahydro-5H-4-oxa-3,10a,11,13,14-pentaaza-6,9-methanonaphtho[1,8-ab]heptalen-2-yl)-2-methylbenzaldehyde] | 0.31 | 51.4
Cc1cc(N)cc(-c2nc3c4c(nc(OC[C@]56CCN5CC(F)(F)C6)nc4c2F)N2C[C@H]4CC[C@H](N4)[C@H]2[C@H](C)O3)c1C(F)(F)F [Compound 60, 3-((5S,5aS,6S,9R)-12-(((R)-3,3-Difluoro-1-azabicyclo[3.2.0]heptan-5-yl)methoxy)-1-fluoro-5-methyl-5a,6,7,8,9,10-hexahydro-5H-4-oxa-3,10a,11,13,14-pentaaza-6,9-methanonaphtho[1,8-ab]heptalen-2-yl)-5-methyl-4-(trifluoromethyl)aniline] | 0.18 | 4.55
Cc1c(F)c(N)cc(-c2nc3c4c(nc(OC[C@@]56CCCN5C[C@H](F)C6)nc4c2F)N2C[C@H]4CC[C@H](N4)[C@H]2CO3)c1C(F)(F)F [Compound 61, 2-Fluoro-5-((5aS,6S,9R)-1-fluoro-12-(((2R,7aS)-2-fluorotetrahydro-1H-pyrrolizin-7a(5H)-yl)methoxy)-5a,6,7,8,9,10-hexahydro-5H-4-oxa-3,10a,11,13,14-pentaaza-6,9-methanonaphtho[1,8-ab]heptalen-2-yl)-3-methyl-4-(trifluoromethyl)aniline] | 0.21 | 30.5
Cc1c(F)c(N)cc(-c2nc3c4c(nc(OC[C@@]56CCCN5CC5(CC5(F)F)C6)nc4c2F)N2C[C@H]4CC[C@H](N4)[C@H]2[C@H](C)O3)c1C(F)(F)F (stereo partly drawn) [Compound 62, 5-((5S,5aS,6S,9R)-12-(((7a'S)-2,2-Difluorodihydro-1′H,3′H-spiro[cyclopropane-1,2′-pyrrolizin]-7a′(5′H)-yl)methoxy)-1-fluoro-5-methyl-5a,6,7,8,9,10-hexahydro-5H-4-oxa-3,10a,11,13,14-pentaaza[6,9]methanonaphtho[1,8-ab]heptalen-2-yl)-2-fluoro-3-methyl-4-(trifluoromethyl)aniline] | 0.083 | 0.29
Cc1c(F)c(N)cc(-c2nc3c4c(nc(OC[C@@]56CCCN5C/C(=C\F)C6)nc4c2F)N2C[C@H]4CC[C@H](N4)[C@H]2[C@H](C)O3)c1C(F)(F)F [Compound 64, 2-fluoro-5-((5S,5aS,6S,9R)-1-fluoro-12-(((S,Z)-2-(fluoromethylene)tetrahydro-1H-pyrrolizin-7a(5H)-yl)methoxy)-5-methyl-5a,6,7,8,9,10-hexahydro-5H-4-oxa-3,10a,11,13,14-pentaaza-6,9-methanonaphtho[1,8-ab]heptalen-2-yl)-3-methyl-4-(trifluoromethyl)aniline] | 0.12 | 0.738
